Reference: paper PMC11347369, “Synthesis and antibacterial action of 3’,6’-disubstituted spectinomycins” (The Journal of Antibiotics, 2024)
In brackets after ≈: the same amount, converted by molar mass. Counter-ions that a name gives are not always drawn. Like-named read-outs stand apart in the source and are kept apart here.

What was measured:
E. faecalis ATCC 29212 = assay: MIC broth microdilution, E. faecalis; assay type: cell-based; settings: Enterococcus faecalis
[1] = system: M. abscessus ATCC 19977 ∆2780c; assay: microbe, parasite or virus in culture; assay type: cell-based, Mycobacterium abscessus; settings: Mycobacteroides abscessus, ATCC19977, 72 h, read-out: ∆2780c MIC
E. coli K12 [2] = assay: microbe, parasite or virus in culture; settings: Escherichia coli, K12, read-out: Minimum Inhibitory Concentration
M. tuberculosis H37Rv [3] = assay: microbe, parasite or virus in culture; settings: Mycobacterium tuberculosis, 168 h, read-out: WT MIC
[4] = system: K. pneumoniae ATCC 700603; assay: MIC broth microdilution, K. pneumoniae; assay type: cell-based, Klebsiella pneumoniae; settings: Klebsiella pneumoniae, ATCC700603, read-out: Minimum Inhibitory Concentration
M. abscessus ATCC 19977 [5] = assay: microbe, parasite or virus in culture; settings: Mycobacteroides abscessus, ATCC19977, 72 h, read-out: WT MIC
[6] = system: M. smegmatis strain MC^2 155; assay: MIC broth microdilution, M. smegmatis; assay type: cell-based, Mycobacterium smegmatis; settings: Mycolicibacterium smegmatis, MC^2155, 72 h, read-out: WT MIC
S. aureus USA300 = assay: MIC broth microdilution, S. aureus; assay type: cell-based; settings: Staphylococcus aureus, USA300, read-out: Minimum Inhibitory Concentration
S. pneumoniae R6 = assay: MIC broth microdilution, S. pneumoniae; assay type: cell-based; settings: Streptococcus pneumoniae, read-out: Minimum Inhibitory Concentration
E. coli K12 [7] = settings: E. coli K12 MIC versus K12 ∆tolC MIC
S. pyogenes ATCC 700294 = assay: MIC broth microdilution, S. pyogenes; assay type: cell-based; settings: Streptococcus pyogenes
E. coli K12 ∆tolC = assay: microbe, parasite or virus in culture; assay type: cell-based; settings: Escherichia coli, read-out: Minimum Inhibitory Concentration
[8] = system: S. epidermidis ATCC 14990; assay: MIC broth microdilution, S. epidermidis; assay type: cell-based; settings: Staphylococcus epidermidis, ATCC14990, read-out: Minimum Inhibitory Concentration
E. faecium ATCC 19434 = assay: MIC broth microdilution, E. faecium; assay type: cell-based; settings: Enterococcus faecium
A. baumannii ATCC 19606 = assay: MIC broth microdilution, A. baumannii; assay type: cell-based, Acinetobacter baumannii; settings: Acinetobacter baumannii
M. abscessus ATCC 19977 [9] = system: M. abscessus ATCC 19977
M. tuberculosis H37Rv [10] = system: M. tuberculosis H37Rv
[11] = system: M. tuberculosis H37Rv ∆1258c; assay: microbe, parasite or virus in culture; assay type: cell-based; settings: Mycobacterium tuberculosis, 168 h
[12] = target: T1, M. smegmatis ribosomes (strain SZ380) (Mycolicibacterium smegmatis, UniProt A0QSG6); assay: Mycobacterial cell-free translation inhibition assay; assay type: biochemical, Mycobacterium smegmatis
T1 construct: S30 extracts were prepared by addition of dithiothreitol (DTT) to 1 mM and centrifugation; endogenous in cells; host or cells: M. smegmatis strain SZ380, S30 cell extract
Procedure: Mycobacterial cell-free translation inhibition assays were performed as described previously. In brief, M. smegmatis strain SZ380 bacterial cells were disrupted and emulsified with a microfluidizer processor (Microfluidics, Westwood, MA, USA) at 25,000 lb/in^2. S30 extracts were prepared by addition of dithiothreitol (DTT) to 1 mM and centrifugation at 30,000 × g at 4 °C. Translation reaction mixtures containing either test article or DMSO vehicle control and 4 μl of the S30 extract, 0.2 mM amino acid mix, 6 μg tRNA (Sigma), 0.4 μg hFluc mRNA, 0.3 μl protease inhibitor (complete, EDTA-free, Roche), 12 U RNAse inhibitor (Ribolock, Thermo Scientific), 6 μl S30 premix without amino acids (Promega), plus water to a final reaction volume of 15 μl were incubated for 1 h at 37 °C. The reaction was stopped on ice before adding 75 μl of luciferase assay reagent (Promega) and recording of luminescence. Regression analysis and IC50 calculations were performed using GraphPad Prism version 9.3.1 by using the equation [log(inhibitor) vs. response–Variable slope (four parameters)] with the fitting method: least squares (ordinary) fit. Y = Bottom + (Top-Bottom)/(1 + 10^((X-LogIC50))).

P. aeruginosa ATCC 15692 = assay: MIC broth microdilution, P. aeruginosa; assay type: cell-based, Pseudomonas aeruginosa; settings: Pseudomonas aeruginosa
[13] = target: T1, M. smegmatis ribosomes (strain SZ380)
[14] = ATCC29212, read-out: Minimum Inhibitory Concentration
[15] = ATCC700294, read-out: Minimum Inhibitory Concentration
[16] = ATCC19434, read-out: Minimum Inhibitory Concentration
[17] = ATCC19606, read-out: Minimum Inhibitory Concentration
[18] = cell-free translation, M. smegmatis SZ380 S30 extract, luciferase readout, read-out: Ribo. IC50
[19] = ATCC15692, read-out: Minimum Inhibitory Concentration
[20] = previously reported; read-out: Ribo. IC50; cited from earlier work

T1 sequence (A0QSG6 whole entry): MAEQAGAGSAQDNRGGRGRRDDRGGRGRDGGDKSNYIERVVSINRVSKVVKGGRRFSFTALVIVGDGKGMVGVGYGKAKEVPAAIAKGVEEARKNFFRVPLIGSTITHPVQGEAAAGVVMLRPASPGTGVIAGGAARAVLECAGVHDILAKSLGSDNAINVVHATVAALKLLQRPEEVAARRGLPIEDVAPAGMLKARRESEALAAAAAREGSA

Structure (SMILES) | MIC (E. faecalis ATCC 29212; [14]) [µg/mL] | MIC [1] [µg/mL] | MIC (E. coli K12 [2]) [µg/mL] | MIC (M. tuberculosis H37Rv [3]) [µg/mL] | MIC [4] [µg/mL] | MIC (M. abscessus ATCC 19977 [5]) [µg/mL] | MIC [6] [µg/mL] | MIC (S. aureus USA300) [µg/mL] | MIC (S. pneumoniae R6) [µg/mL] | E. coli Efflux Ratio (E. coli K12 [7]) | MIC (S. pyogenes ATCC 700294; [15]) [µg/mL] | MIC (E. coli K12 ∆tolC) [µg/mL] | MIC [8] [µg/mL] | MIC (E. faecium ATCC 19434; [16]) [µg/mL] | MIC (A. baumannii ATCC 19606; [17]) [µg/mL] | Efflux Ratio (M. abscessus ATCC 19977 [9]) | Efflux Ratio (M. tuberculosis H37Rv [10]) | MIC [11] [µg/mL] | IC50 [12, 18] [nM] | MIC (P. aeruginosa ATCC 15692; [19]) [µg/mL] | other results
CCCCC1CC(O)(CN)C2(O)OC3C(NC)C(O)C(NC)C(O)C3OC2O1 [AmTroSPC (13), 3’-(R)-Aminomethyl-6’-propyl-dihydrospectinomycin] | > 64 | 64 (≈ 158 µM) | > 64 | 64 (≈ 158 µM) | > 64 | 64 (≈ 158 µM) | 128 (≈ 316 µM) | > 64 | 16 to 32 (≈ 39.5 to 78.9 µM) | >2 | 16 (≈ 39.5 µM) | 32 (≈ 78.9 µM) | > 64 | > 64 | > 64 | 1 | 8 | 8 (≈ 19.7 µM) | 2710 | > 64 | –
CCCC[C@@H]1C[C@@H](N)[C@]2(O)O[C@@H]3[C@@H](NC)[C@@H](O)[C@@H](NC)[C@H](O)[C@H]3O[C@@H]2O1 [Amino TroSPC (11), 3’-(R)-Amino-3’-deoxy-6’-propyl-dihydrospectinomycin trihydrochloride] | > 64 | 64 | > 64 | 16 | > 64 | 64 | 32 | > 64 | 64 | >2 | 32 | 32 | > 64 | > 64 | > 64 | 1 | 8 | 2 | 640 | > 64 | –
CN[C@@H]1[C@H](O)[C@H](NC)[C@H]2O[C@]3(O)[C@H](O[C@@H]2[C@H]1O)O[C@H](C)C[C@H]3NC(=O)Cc1ccccn1 [SPA (3), reference compound] | – | – | – | 2 (≈ 4.42 µM) | – | – | – | – | – | – | – | – | – | – | – | 4 | – | 4 (≈ 8.84 µM) | – | – | IC50 ([13]; converted from µg/mL to µM from what was previously reported; read-out: Ribo. IC50; cited from earlier work): 1.8 µM
CN[C@@H]1[C@H](O)[C@H](NC)[C@H]2O[C@@]3(O)C(=O)C[C@@H](C)O[C@H]3O[C@@H]2[C@H]1O [SPC (1), spectinomycin] | – | 16 (≈ 48.1 µM) | 128 (≈ 385 µM) | 64 (≈ 193 µM) | 512 (≈ 1540 µM) | 512 (≈ 1540 µM) | – | 512 (≈ 1540 µM) | 16 (≈ 48.1 µM) | 2 | – | 64 (≈ 193 µM) | 256 to 512 (≈ 770 to 1540 µM) | – | – | 32 | 16 | 4 (≈ 12 µM) | – | – | MIC (E. faecalis ATCC 29212; ATCC29212, E. faecalis ATCC 29212, read-out: Minimum Inhibitory Concentration): 256 µg/mL (≈ 770 µM); MIC ([6]; M. smegmatis strain MC^2 155, 3 days): 64 µg/mL (≈ 193 µM); IC50 ([13]; read-out: Ribo. IC50; previously reported; cited from earlier work): 0.8 µM; MIC (S. pyogenes ATCC 700294; ATCC700294, S. pyogenes ATCC 700294, read-out: Minimum Inhibitory Concentration): 32 µg/mL (≈ 96.3 µM); MIC (E. faecium ATCC 19434; ATCC19434, E. faecium ATCC 19434, read-out: Minimum Inhibitory Concentration): 256 µg/mL (≈ 770 µM); MIC (A. baumannii ATCC 19606; ATCC19606, A. baumannii ATCC 19606, read-out: Minimum Inhibitory Concentration): > 1020 µg/mL; MIC (P. aeruginosa ATCC 15692; ATCC15692, P. aeruginosa ATCC 15692, read-out: Minimum Inhibitory Concentration): 1020 µg/mL (≈ 3080 µM)
CCCC[C@@H]1C[C@@H](NC(=O)Cc2ccccn2)[C@]2(O)O[C@@H]3[C@@H](NC)[C@@H](O)[C@@H](NC)[C@H](O)[C@H]3O[C@@H]2O1 [TroSPA (4), 3′-Deoxy-3′(R)-[(pyridin-2-yl)acetylamino]-6’-propyl-dihydrospectinomycin dihydrochloride] | > 64 | 16 | > 64 | 2 | > 64 | 64 | 32 | > 64 | 16 | >2 | 8 | 32 | > 64 | > 64 | > 64 | 4 | 2 | 1 | – | > 64 | IC50 [12]: 2450 nM
CN[C@@H]1[C@H](O)[C@H](NC)[C@H]2O[C@]3(O)[C@H](O[C@@H]2[C@H]1O)O[C@H](C)C[C@@]3(O)CNCc1ccc(F)cc1 [bAmSPC (5), reference compound] | – | 8 (≈ 17 µM) | – | 16 (≈ 33.9 µM) | – | 128 (≈ 271 µM) | – | – | – | – | – | – | – | – | – | 16 | 8 | 2 (≈ 4.24 µM) | – | – | IC50 [13, 20]: 1.18 µM
CCCCC1CC(O)(CNCc2ccc(F)cc2)C2(O)OC3C(NC)C(O)C(NC)C(O)C3OC2O1 [bAmTroSPC (6), 3′(R)-[(4-Fluorobenzyl)aminomethyl]-6’-propyl-dihydrospectinomycin trihydrochloride] | 32 | 64 | 32 | 8 | > 64 | 64 | 64 | 64 | 4 | 4–8 | 2 | 4 to 8 | 16 | 32 | > 64 | 1 | 8 | 1 | 2490 | > 64 | –
CN[C@@H]1[C@H](O)[C@H](NC)[C@H]2O[C@]3(O)[C@H](O[C@@H]2[C@H]1O)O[C@H](C)C[C@@]3(O)CNCCc1ccc(F)cc1 [eAmSPC (7), reference compound] | – | 1 (≈ 2.06 µM) | – | 2 (≈ 4.12 µM) | – | 4 (≈ 8.24 µM) | 4 (≈ 8.24 µM) | – | – | – | – | – | – | – | – | 4 | 4 | 0.5 (≈ 1.03 µM) | – | – | IC50 [13, 20]: 1.01 µM
CCCCC1CC(O)(CNCCc2ccc(F)cc2)C2(O)OC3C(NC)C(O)C(NC)C(O)C3OC2O1 [eAmTroSPC (8), 3′(R)-[(4-Fluorophenylethyl)aminomethyl]-6’-propyl-dihydrospectinomycin trihydrochloride] | 32 | 8 | 64 | 2 | > 64 | 8 | 8 | 64 | 8 | 8–16 | 4 | 4 to 8 | 8 | 32 | > 64 | 1 | 8 | 0.25 | – | > 64 | IC50 [12]: 2310 nM
